Assay results taken from patent US20210387983A1, “CRYSTALLINE ALK5 INHIBITORS AND USES THEREOF” (THERAVANCE BIOPHARMA R&D IP, LLC, priority 2020, published 2021).

Assays:
[1] = In vitro human liver microsome intrinsic clearance (HLM Clint); type: in vitro ADME; conditions: liver microsomes, pH 7.4, 0.1 μM test compound, 0.1 mg/mL protein, 1 mM NADPH, 37° C.
Description: Liver microsomes were used for in vitro determination of hepatic clearance of the compound of Formula I. A microsomal incubation cofactor solution was prepared with 100 mM potassium phosphate buffered to pH 7.4 (BD Biosciences, Woburn, Mass.) supplemented with 2 mM NADPH (Sigma-Aldrich, St. Louis, Mo.). 10 mM DMSO stocks of test compound were diluted and spiked into the cofactor solution to yield a 0.2 μM concentration (0.02% v/v DMSO). Aliquots of frozen human liver microsomes (Bioreclamation IVT, Baltimore Md.) were thawed and diluted into 100 mM potassium phosphate buffer to yield microsomal protein concentrations of 0.2 mg/mL. Cofactor/drug and microsomal solutions were pre-warmed separately for 4 minutes in a water bath held at 37° C. Incubations (n=1) were started by the combination of equal volumes of cofactor/drug solution with microsomal solution. The final concentration of test compound was 0.1 μM with a final protein concentration of 0.1 mg/mL and final NADPH concentration of 1 mM. Samples were collected at times 0, 3, 8, 15, 30, and 45 minutes to monitor the disappearance of test compound. At each time point, 50 μL of incubation sample was removed and spiked into 25 μL of water plus 3% formic acid plus Internal Standard for reaction termination. Samples were then injected onto an AB Sciex API 4000 triple quadrupole mass spectrometer for quantitation by LC-MS/MS. […]

[2] = test system: SMAD3 phosphorylation; experiment: Cardiac PK/PD: systemic target engagement, pSMAD3/tSMAD3 in heart by Meso-Scale Discovery; type: in vivo, C57bl/6n mice; conditions: mice, oral aspiration 2 or 4 hours prior to harvest; TGF-β1 i.v. challenge; heart samples
Description: C57bl/6n mice were acclimated for at least 3 days before use. On the day of the experiment, animals were grouped into sample sizes of 5-10. Test compounds were pre-treated via oral aspiration (OA; animals are forced to aspirate solution into the lungs by covering their nose). All oral aspirations were performed using a 50 μL dosing volume and accompanied by a vehicle control group (3% glycerol in PBS, pH=4). Following compound OA treatment, the animals were returned to their home cages and monitored. Compound pre-treatment occurred either 2 or 4 hours prior to harvest. One hour prior to harvest, animals were challenged via tail-vein intravenous injection with PBS vehicle or recombinant human TGF-β1 protein (1 μg per animal dissolved in 1 part 4 mM HCl and 2 parts 3% glycerol in PBS). Five minutes prior to harvest, animals were deeply anesthetized under isoflurane and euthanized via cervical dislocation. Plasma, left lung lobes and whole hearts were collected during harvest.
Blood plasma was harvested as described above in the Lung PK/PD experiment. Whole hearts were processed in the same manners as left lung lobes in the Lung PK/PD experiment. Left lung lobes were homogenized in 500 μL of water and submitted for BA Analysis.
Heart samples were processed using MSD in the same manner as the left lung lobes above. […] Plasma, lung and heart drug concentrations were quantified.

[3] = test system: DSS-induced intestinal fibrosis; experiment: Prophylactic study in murine DSS-induced intestinal fibrosis model; type: in vivo, C57BL/6J mice; conditions: oral gavage starting on day one of DSS administration; sacrifice 9 weeks
Description: The compound of Formula I is expected to slow, halt or reverse the progression of intestinal fibrosis in a murine colitis model. Six to 8-week old male C57BL/6J mice are tagged and weighed. The drinking water of the animals is treated with 2.5% dextran sulfate sodium (DSS) for 7 days to induce acute colitis, followed by 2 days of normal drinking water. Three, 3-week cycles of 2.5% DSS treatment (1 week of 2.5% DSS in water; 2 weeks of normal water) are then completed to induce intestinal fibrosis. Starting on day one of DSS administration, mice are treated with either vehicle control or the compound of Formula I at an appropriate amount and frequency via oral gavage (e.g., once daily). The animals are sacrificed 9 weeks after the first DSS administration, then distal, mid and proximal sections of the colon harvested for histologic analysis, RNA extraction and cytokine measurement.

[4] = test system: intestinal fibrosis in an adoptive T-cell transfer model of colitis; experiment: Efficacy study in adoptive T-cell transfer model of colitis; type: in vivo, CB17 SCID mice; conditions: oral gavage once diarrhea and 10% body weight decrease observed; sacrifice 45 days after induction
Description: The compound of Formula I is expected to slow, halt or reverse the progression of intestinal fibrosis in an adoptive T-cell transfer model of colitis. Six- to 8-week old female CB17 SCID mice are tagged and weighed, then administered CD4^+ CD25^− CD62L^+ naïve T cells isolated from the spleens of Balb/C mice (IP; 1×10^6 cells) to induce colitis. Once diarrhea and a 10% or greater decrease in body weight are observed (typically around week 2), mice are treated with either vehicle control or the compound of Formula I at an appropriate amount and frequency via oral gavage (e.g., once daily). Animals are sacrificed 45 days after induction of colitis, then distal, mid and proximal sections of the colon harvested for histologic analysis, RNA extraction and cytokine measurement.

[5] = test system: monocrotaline (MCT) model of severe pulmonary hypertension; experiment: Efficacy study in monocrotaline model of severe pulmonary hypertension; type: in vivo, Sprague-Dawley rats; conditions: MCT 60 mg/kg s.c.; oral aspiration, 2-weeks of treatment
Description: Male Sprague-Dawley rats are tagged, weighed, and randomly divided into control and MCT-treated groups. The rats in the MCT-treated group are administered a single dose of MCT (60 mg/kg, s.c.), then treated with either (1) vehicle control; (2) sildenafil (30 mg/kg, p.o., b.i.d.); or (3) the compound of Formula I at an appropriate amount and frequency (formulated in 3% glycerol in PBS; pH=4) via oral aspiration.
Following 2-weeks of treatment, the animals are anesthetized with ketamine/xylazine for terminal monitoring of pulmonary and systemic arterial pressures along with heart rate. The lungs of each animal are then harvested for histologic analysis.

## C[C@@H]1CN(CCNc2cnc3ccc(-c4nc[nH]c4-c4cc(Cl)ccc4F)nc3c2)C[C@H](C)N1 [compound of Formula I, 6-(5-(5-chloro-2-fluorophenyl)-1H-imidazol-4-yl)-N-(2-((3S,5R)-3,5-dimethylpiperazin-1-yl)ethyl)-1,5-naphthyridin-3-amine]
[1]
  microsomal CLint at 0.1 μM: > 250 µL/min/mg
[2]
  systemic target engagement, as measured by SMAD3 phosphorylation inhibition: minimal target engagement systemically
[3]
  intestinal fibrosis: slow or prevent intestinal fibrosis
[4]
  intestinal fibrosis: slow, halt or reverse intestinal fibrosis
[5]
  progression of pulmonary hypertension: slow, halt or reverse the progression of pulmonary hypertension
